Columns and labels:
Test in all cases: relative viability (nuclei count vs DMSO), 5 days (fraction); higher = more cells survive
[1] = tested on: HARA
Procedure, shortened: (§1)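 The day after seeding in 1536-well plates, lung cancer cell lines were treated by pin tool with a single drug, or with a fixed anchor-drug dose together with five library-drug doses (not always all listed) in √10 steps. After 5 days, a combined fix-and-stain solution (final 0.05% Triton X-100, 1% formaldehyde, 1 ug/ml Hoechst) was added. Nuclei counted on 4× images gave relative viability as treated counts over vehicle counts, reported as the median of duplicate plates.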

[2] = tested on: NCI-H441
Procedure, shortened: as §1

[3] = tested on: NCI-H2126
Procedure, shortened: as §1

[4] = tested on: NCI-H2023
Procedure, shortened: as §1

[5] = tested on: HCC-15
Procedure, shortened: as §1

[6] = tested on: A-427
Procedure, shortened: as §1

[7] = tested on: SW 1573
Procedure, shortened: as §1

[8] = tested on: LCLC-97TM1
Procedure, shortened: as §1

[9] = tested on: NCI-H1734
Procedure, shortened: as §1

[10] = tested on: LOU-NH91
Procedure, shortened: as §1

[11] = tested on: COR-L23
Procedure, shortened: as §1

[12] = tested on: HCC-366
Procedure, shortened: as §1

[13] = tested on: RERF-LC-KJ
Procedure, shortened: as §1

[14] = tested on: NCI-H460
Procedure, shortened: as §1

[15] = tested on: NCI-H650
Procedure, shortened: as §1

[16] = tested on: NCI-H1650
Procedure, shortened: as §1

[17] = tested on: NCI-H2009
Procedure, shortened: as §1

[18] = tested on: LCLC-103H
Procedure, shortened: as §1

[19] = tested on: HCC-78
Procedure, shortened: as §1

[20] = tested on: 201T
Procedure, shortened: as §1

[21] = tested on: ChaGo-K-1
Procedure, shortened: as §1

[22] = tested on: NCI-H1993
Procedure, shortened: as §1

Q: Which results are given for `CCCCCCCCCCCC1=C(O)C(=O)C=C(O)C1=O` [Embelin] + Cc1nc(Nc2ncc(C(=O)Nc3c(C)cccc3Cl)s2)cc(N2CCN(CCO)CC2)n1 [Dasatinib] (partner 0.075 µM)?
A: relative viability ([1]; first compound 0.08 µM): 0.25; relative viability ([1]; first compound 0.8 µM): 0.329; relative viability ([1]; first compound 2.53 µM): 0.279; relative viability ([1]; first compound 8 µM): 0.272; relative viability ([2]; first compound 0.08 µM): 0.645; relative viability ([2]; first compound 0.8 µM): 0.633; relative viability ([2]; first compound 2.53 µM): 0.686; relative viability ([2]; first compound 8 µM): 0.838; relative viability ([3]; first compound 0.08 µM): 0.615; relative viability ([3]; first compound 0.8 µM): 0.684; relative viability ([3]; first compound 2.53 µM): 0.714; relative viability ([3]; first compound 8 µM): 0.502; relative viability ([4]; first compound 0.08 µM): 0.565; relative viability ([4]; first compound 0.8 µM): 0.673; relative viability ([4]; first compound 2.53 µM): 0.611; relative viability ([4]; first compound 8 µM): 0.556; relative viability ([5]; first compound 0.08 µM): 0.592; relative viability ([5]; first compound 0.8 µM): 0.628; relative viability ([5]; first compound 2.53 µM): 0.711; relative viability ([5]; first compound 8 µM): 0.582; relative viability ([6]; first compound 0.08 µM): 0.689; relative viability ([6]; first compound 0.8 µM): 0.805; relative viability ([6]; first compound 2.53 µM): 0.689; relative viability ([6]; first compound 8 µM): 0.727; relative viability ([7]; first compound 0.08 µM): 0.406; relative viability ([7]; first compound 0.8 µM): 0.637; relative viability ([7]; first compound 2.53 µM): 0.458; relative viability ([7]; first compound 8 µM): 0.725; relative viability ([8]; first compound 0.08 µM): 1.05; relative viability ([8]; first compound 0.8 µM): 0.668; relative viability ([8]; first compound 2.53 µM): 0.916; relative viability ([8]; first compound 8 µM): 0.912; relative viability ([9]; first compound 0.08 µM): 0.424; relative viability ([9]; first compound 0.8 µM): 0.53; relative viability ([9]; first compound 2.53 µM): 0.514; relative viability ([9]; first compound 8 µM): 0.419; relative viability ([10]; first compound 0.08 µM): 0.567; relative viability ([10]; first compound 0.8 µM): 0.624; relative viability ([10]; first compound 2.53 µM): 0.561; relative viability ([10]; first compound 8 µM): 0.531; relative viability ([11]; first compound 0.08 µM): 0.486; relative viability ([11]; first compound 0.8 µM): 0.55; relative viability ([11]; first compound 2.53 µM): 0.458; relative viability ([11]; first compound 8 µM): 0.562; relative viability ([12]; first compound 0.08 µM): 0.593; relative viability ([12]; first compound 0.8 µM): 0.688; relative viability ([12]; first compound 2.53 µM): 0.984; relative viability ([12]; first compound 8 µM): 0.557; relative viability ([13]; first compound 0.08 µM): 0.82; relative viability ([13]; first compound 0.8 µM): 0.983; relative viability ([13]; first compound 2.53 µM): 0.81; relative viability ([13]; first compound 8 µM): 0.704; relative viability ([14]; first compound 0.08 µM): 0.58; relative viability ([14]; first compound 0.8 µM): 0.57; relative viability ([14]; first compound 2.53 µM): 0.571; relative viability ([14]; first compound 8 µM): 0.416; relative viability ([15]; first compound 0.08 µM): 0.443; relative viability ([15]; first compound 0.8 µM): 0.485; relative viability ([15]; first compound 2.53 µM): 0.368; relative viability ([15]; first compound 8 µM): 0.383; relative viability ([16]; first compound 0.08 µM): 0.348; relative viability ([16]; first compound 0.8 µM): 0.408; relative viability ([16]; first compound 2.53 µM): 0.337; relative viability ([16]; first compound 8 µM): 0.315; relative viability ([17]; first compound 0.08 µM): 0.342; relative viability ([17]; first compound 0.8 µM): 0.487; relative viability ([17]; first compound 2.53 µM): 0.243; relative viability ([17]; first compound 8 µM): 0.251; relative viability ([18]; first compound 0.08 µM): 0.453; relative viability ([18]; first compound 0.8 µM): 0.517; relative viability ([18]; first compound 2.53 µM): 0.511; relative viability ([18]; first compound 8 µM): 0.405; relative viability ([19]; first compound 0.08 µM): 0.373; relative viability ([19]; first compound 0.8 µM): 0.44; relative viability ([19]; first compound 2.53 µM): 0.353; relative viability ([19]; first compound 8 µM): 0.451; relative viability ([20]; first compound 0.08 µM): 0.562; relative viability ([20]; first compound 0.8 µM): 0.641; relative viability ([20]; first compound 2.53 µM): 0.519; relative viability ([20]; first compound 8 µM): 0.613; relative viability ([21]; first compound 0.08 µM): 0.501; relative viability ([21]; first compound 0.8 µM): 0.576; relative viability ([21]; first compound 2.53 µM): 0.585; relative viability ([21]; first compound 8 µM): 0.582; relative viability ([22]; first compound 0.08 µM): 0.641; relative viability ([22]; first compound 0.8 µM): 0.602; relative viability ([22]; first compound 2.53 µM): 0.535; relative viability ([22]; first compound 8 µM): 0.509
